We go through 10 compounds from ChEMBL document CHEMBL1201862, “PubChem BioAssay data set” (2004).

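A five-concentration, 48-hour dose response in 96-well plates underlies each endpoint, interpolated linearly between surrounding concentrations. GI50 is the concentration that inhibits growth by half.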 The source made the active and inactive calls. Cut-off read from the data, not from the text of the source: active = GI50 up to about 1.1 µM and inactive = higher.

Test systems include OVCAR-4; COLO 205; CCRF-CEM; MDA-MB-435; SF-295; NCI-H23; KM12; SK-OV-3; SK-MEL-2; Malme-3M; UO-31; MOLT-4; SF-268; OVCAR-8; OVCAR-5; PC-3; K562; M14; UACC-257; U-251.
Common to all, as to assay: NCI-60 cell line screen, 48 h

Consider `COc1cc(/C=N\c2nc(-c3ccc(NS(=O)(=O)c4ccc(Cl)c(OC)c4)cc3)cs2)ccc1O`, for which the GI50 with OVCAR-4 was 35.2 µM (inactive); in the assay with COLO 205, 30.1 µM (inactive); in the assay on CCRF-CEM, 30.1 µM (inactive); with MDA-MB-435, 35.4 µM (inactive); in the assay on SF-295, > 100 µM (inactive); in the assay with NCI-H23, 31.1 µM (inactive). Also, the GI50 with KM12 was 29.2 µM (inactive); in the assay on SK-OV-3 it was > 100 µM (inactive); in the assay on SK-MEL-2, 32.2 µM (inactive); in the assay with Malme-3M, 45 µM (inactive); in the assay with UO-31, 60.8 µM (inactive); in the assay with MOLT-4, 16.4 µM (inactive). Further, the GI50 in the assay on SF-268 was 37.6 µM (inactive); with OVCAR-8, 50.1 µM (inactive); in the assay with OVCAR-5, > 100 µM (inactive); with PC-3, 50.8 µM (inactive); in the assay on K562, 27.9 µM (inactive); in the assay on M14, 95.5 µM (inactive).
Take `O=P(Nc1ccccc1)(Oc1ccccc1)N1CCN(c2ccccc2)CC1` (stereo not drawn): the GI50 in the assay on OVCAR-4 was 25.5 µM (inactive); with COLO 205 it was 19.6 µM (inactive); in the assay on CCRF-CEM, 26.3 µM (inactive); with UACC-257, 20.9 µM (inactive); in the assay on MDA-MB-435, 20.8 µM (inactive); in the assay with SF-295, 18.4 µM (inactive). Also, the GI50 in the assay with NCI-H23 is 19.6 µM (inactive); in the assay with KM12, 17.4 µM (inactive); in the assay on SK-OV-3, 16.8 µM (inactive); in the assay on SK-MEL-2, 20.9 µM (inactive); in the assay with Malme-3M, 17.2 µM (inactive); in the assay with UO-31 it was 14.9 µM (inactive). Moreover, the GI50 with U-251 was 16.8 µM (inactive); in the assay with MOLT-4 it was 17.9 µM (inactive); in the assay with SF-268 it was 23.2 µM (inactive); with OVCAR-8, 21.9 µM (inactive); in the assay with OVCAR-5 it was 17.9 µM (inactive); with PC-3 it was 18.1 µM (inactive). Moreover, the GI50 with K562 is 49.1 µM (inactive); in the assay with M14 it was 15.2 µM (inactive).
Regarding `CC(C)(NC(=O)OCc1ccccc1)C(=O)OC(=O)C(C)(C)NC(=O)OCc1ccccc1`, the GI50 in the assay with OVCAR-4, in the assay on COLO 205, in the assay with CCRF-CEM, in the assay with MDA-MB-435, in the assay on SF-295 and in the assay on NCI-H23 was > 100 µM (inactive) in each case. The GI50 is > 100 µM (inactive) with KM12; 54.2 µM (inactive) with SK-OV-3; > 100 µM (inactive) in the assay with SK-MEL-2; > 100 µM (inactive) in the assay on Malme-3M; > 100 µM (inactive) in the assay with UO-31; > 100 µM (inactive) in the assay with U-251. Besides, the GI50 in the assay on MOLT-4 is > 100 µM (inactive); in the assay with SF-268 it was 0.653 µM (active); in the assay on OVCAR-8 it was > 100 µM (inactive); in the assay with OVCAR-5, > 100 µM (inactive); in the assay on PC-3, > 100 µM (inactive); with K562, > 100 µM (inactive). In addition, the GI50 in the assay on M14 is > 100 µM (inactive).
Take `CN(N=O)C(=O)Nc1c[nH]c(=O)[nH]c1=O`: the GI50 in the assay on OVCAR-4, in the assay with COLO 205, in the assay on CCRF-CEM, in the assay with UACC-257, in the assay with MDA-MB-435 and in the assay with SF-295 was > 100 µM (inactive) each time. Further, the GI50 in the assay on NCI-H23, in the assay with KM12, in the assay with SK-OV-3, with SK-MEL-2, in the assay with Malme-3M and in the assay on UO-31 was > 100 µM (inactive) in each case. In addition, the GI50 with U-251, with MOLT-4, in the assay with OVCAR-8, in the assay with OVCAR-5, with PC-3 and in the assay on K562 was > 100 µM (inactive) each time. Besides, the GI50 in the assay with M14 is > 100 µM (inactive).
`Cc1cc(=O)nc(Sc2ccc([N+](=O)[O-])cc2[N+](=O)[O-])[nH]1`: the GI50 with OVCAR-4 is > 39.4 µM (inactive); with COLO 205, 4.65 µM (inactive); in the assay with CCRF-CEM, 0.822 µM (active); in the assay on UACC-257, 21.2 µM (inactive); with MDA-MB-435 it was 25.6 µM (inactive); in the assay with SF-295, > 50.5 µM (inactive). Besides, the GI50 in the assay on NCI-H23 is 18.3 µM (inactive); in the assay on KM12, 22.2 µM (inactive); in the assay on SK-OV-3, 71.8 µM (inactive); with SK-MEL-2, 20.6 µM (inactive); with Malme-3M, 17.3 µM (inactive); with UO-31 it was 17 µM (inactive). Further, the GI50 in the assay with U-251 is 20.7 µM (inactive); in the assay with MOLT-4 it was 7.59 µM (inactive); in the assay on SF-268, 24.4 µM (inactive); with OVCAR-8, 15.9 µM (inactive); in the assay on OVCAR-5, 17.9 µM (inactive); in the assay on PC-3, 22.2 µM (inactive). The figures for the GI50 with K562 and in the assay on M14 were 3.4 µM (inactive) and 16.4 µM (inactive), respectively.
For `O=C1C(NS(=O)(=O)c2ccccc2)=C(n2cnc3ccccc32)C(=O)c2ccccc21`, the GI50 with OVCAR-4 was 34.5 µM (inactive); in the assay on COLO 205 it was > 100 µM (inactive); in the assay with CCRF-CEM, 85.9 µM (inactive); in the assay with UACC-257 it was > 100 µM (inactive); in the assay on MDA-MB-435, > 100 µM (inactive); with SF-295, 57.4 µM (inactive). Further, the GI50 is 58.2 µM (inactive) with NCI-H23; > 100 µM (inactive) in the assay on KM12; > 100 µM (inactive) with SK-OV-3; > 100 µM (inactive) with SK-MEL-2; > 100 µM (inactive) in the assay on Malme-3M; 75.3 µM (inactive) with UO-31. Moreover, the GI50 was 46.1 µM (inactive) in the assay with U-251; > 100 µM (inactive) with MOLT-4; 86.3 µM (inactive) with SF-268; > 100 µM (inactive) with OVCAR-8; > 100 µM (inactive) in the assay on OVCAR-5; > 100 µM (inactive) with PC-3. Besides, the GI50 in the assay with K562 and in the assay with M14 was > 100 µM (inactive) in each case.
As to `COc1ccccc1C1SCC(=O)N1c1ccc(-n2c(-c3ccccc3)nc3ccccc3c2=O)cc1` (stereo not drawn), the GI50 in the assay with OVCAR-4 is 15.8 µM (inactive); in the assay with COLO 205, > 100 µM (inactive); in the assay on CCRF-CEM, 44.5 µM (inactive); in the assay on UACC-257 it was > 100 µM (inactive); in the assay on MDA-MB-435, 53.8 µM (inactive); in the assay with SF-295, 75.5 µM (inactive). In addition, the GI50 is > 100 µM (inactive) in the assay on NCI-H23; 29.9 µM (inactive) in the assay with KM12; > 100 µM (inactive) with SK-OV-3; > 100 µM (inactive) in the assay on SK-MEL-2; 69.2 µM (inactive) with Malme-3M; 9.1 µM (inactive) in the assay with UO-31. The GI50 in the assay on U-251 is 73.1 µM (inactive); in the assay on MOLT-4, 28.8 µM (inactive); in the assay with SF-268 it was 78.2 µM (inactive); in the assay with OVCAR-8, 60.4 µM (inactive); in the assay on OVCAR-5, > 100 µM (inactive); with PC-3, 80.4 µM (inactive). The GI50 with K562 was 47.9 µM (inactive).
With `c1sc(NC2=NCCO2)c2c1CCCC2`, the GI50 with OVCAR-4, in the assay on COLO 205, in the assay with CCRF-CEM, in the assay with UACC-257, in the assay on MDA-MB-435 and with SF-295 was > 100 µM (inactive) each time. The GI50 with NCI-H23, in the assay with KM12, with SK-OV-3, with SK-MEL-2, in the assay on Malme-3M and in the assay on UO-31 was > 100 µM (inactive) each time. The GI50 was > 100 µM (inactive) with U-251; 85.5 µM (inactive) in the assay on MOLT-4; > 100 µM (inactive) with OVCAR-8; > 100 µM (inactive) in the assay with OVCAR-5; 99.8 µM (inactive) with PC-3; > 100 µM (inactive) in the assay with K562. Moreover, the GI50 with M14 was > 100 µM (inactive).
Consider `C=CCc1cc(-c2cc(CC=C)c(O)c(CN(CC)CC)c2)cc(CN(CC)CC)c1O`, for which the GI50 is > 100 µM (inactive) in the assay on OVCAR-4; 26.3 µM (inactive) in the assay with COLO 205; 28.6 µM (inactive) with CCRF-CEM; 23.6 µM (inactive) in the assay with UACC-257; 37.2 µM (inactive) in the assay on MDA-MB-435; 33 µM (inactive) in the assay with SF-295. Moreover, the GI50 was 60.1 µM (inactive) with NCI-H23; 43.3 µM (inactive) in the assay on KM12; > 100 µM (inactive) in the assay on SK-OV-3; 26.9 µM (inactive) in the assay on SK-MEL-2; 16.8 µM (inactive) in the assay with Malme-3M; 15.2 µM (inactive) in the assay on UO-31. In addition, the GI50 was 42.4 µM (inactive) with U-251; 39.9 µM (inactive) in the assay with MOLT-4; 76 µM (inactive) in the assay with SF-268; > 96.6 µM (inactive) with OVCAR-8; 18.8 µM (inactive) with OVCAR-5; 40.2 µM (inactive) in the assay with PC-3. For the same compound, the figures for the GI50 with K562 and with M14 were 26.1 µM (inactive) and 8.93 µM (inactive), respectively.
Take `CN1CCCCC1CCN1c2ccccc2Sc2ccc([S+](C)[O-])cc21` (stereo not drawn) [MESORIDAZINE]: the GI50 in the assay on OVCAR-4, in the assay with COLO 205, with CCRF-CEM, in the assay with UACC-257, with MDA-MB-435 and in the assay on SF-295 was > 100 µM (inactive) in each case. The GI50 in the assay on NCI-H23, in the assay on KM12, in the assay with SK-OV-3, in the assay with SK-MEL-2, in the assay with Malme-3M and in the assay with U-251 was > 100 µM (inactive) in each case. Also, the GI50 in the assay with MOLT-4, in the assay on SF-268, with OVCAR-8, in the assay on OVCAR-5, in the assay with PC-3 and in the assay with K562 was > 100 µM (inactive) throughout. Further, the GI50 in the assay with M14 was > 100 µM (inactive).
